Experiments:
[1] = Formation of 1,5-cz-[M(Lig)] from Lig and M^III ions (metal dependent click-zip) (Charts 4, 5); assay type: physicochemical; conditions: for conversion to 1,5-cz-[M(Lig)], Bi^III: 4% DMSO in MOPS/NaOH buffer pH 7.0, TD728 in 50% i-PrOH; for conversion to 1,5-cz-[M(Lig)], Sc^III / conversion to 1,5-cz-[M(Lig)], Y^III: MOPS/NaOH buffer pH 7.0, TD728, TD827 in 50% i-PrOH; for conversion to 1,5-cz-[M(Lig)], Y^III: TD714 sum of two diastereoisomers; for conversion to 1,5-cz-[M(Lig)], Ir^III / conversion to 1,5-cz-[M(Lig)], Ru^III: 50% i-PrOH in MOPS/NaOH buffer pH 7.0
[2] = Formation of 1,5-cz-[M(Lig)] from Lig and M^II ions (metal dependent click-zip) (Charts 6, 7); assay type: physicochemical; conditions: for conversion to 1,5-cz-[M(Lig)], Ca^II / conversion to 1,5-cz-[M(Lig)], Cd^II / conversion to 1,5-cz-[M(Lig)], Mn^II / conversion to 1,5-cz-[M(Lig)], Pb^II / conversion to 1,5-cz-[M(Lig)], Pd^II: MOPS/NaOH buffer pH 7.0, TD728 in 50% i-PrOH; for conversion to 1,5-cz-[M(Lig)], Pt^II: 50% i-PrOH in MOPS/NaOH buffer pH 7.0
[3] = Formation of 1,5-cz-[Ln(Lig)] from Lig and Ln^III ions (metal dependent click-zip), MOPS/NaOH buffer pH 7.0, analytical HPLC (Charts 1, 2)
[4] = 1 hour at 80° C., TD714 sum of two diastereoisomers
[5] = after 1 week at 80° C., MOPS/NaOH buffer pH 7.0
[6] = after 1 week at 80° C., 50% i-PrOH in aq. MOPS/NaOH Buffer pH 7.0
[7] = after 1 hour at 80° C., 50% i-PrOH in aq. MOPS/NaOH Buffer pH 7.0

C#Cc1cccc(CN2CCN(CC(=O)O)CCN(Cc3cc(Cl)cc(CN=[N+]=[N-])n3)CCN(CC(=O)O)CC2)n1 [TD764]
conversion to 1,5-cz-[M(Lig)], Bi^III ([1]; 1 week at 80° C.): 85% | conversion to 1,5-cz-[M(Lig)], Sc^III ([1]; 1 week at 80° C.): 5% | conversion to 1,5-cz-[M(Lig)], Y^III ([1]; 1 week at 80° C.): 95% | conversion to 1,5-cz-[M(Lig)], Bi^III ([1]; 1 hour at 80° C.): 31% | conversion to 1,5-cz-[M(Lig)], Ca^II ([2]; 1 week at 80° C.): 95% | conversion to 1,5-cz-[M(Lig)], Cd^II ([2]; 1 week at 80° C.): 96% | conversion to 1,5-cz-[M(Lig)], Mn^II ([2]; 1 week at 80° C.): 35% | conversion to 1,5-cz-[M(Lig)], Pb^II ([2]; 1 week at 80° C.): 37% | conversion to 1,5-cz-[M(Lig)], Pd^II ([2]; 1 week at 80° C.): 9% | conversion to 1,5-cz-[M(Lig)], Ca^II ([2]; 1 hour at 80° C.): 16% | conversion to 1,5-cz-[M(Lig)], Mn^II ([2]; 1 hour at 80° C.): 1% | conversion to 1,5-cz-[M(Lig)], Pb^II ([2]; 1 hour at 80° C.): 1% | conversion to 1,5-cz-[M(Lig)], Pd^II ([2]; 1 hour at 80° C.): 10% | conversion to 1,5-cz-[M(Lig)], Cd^II [2, 4]: 53% | conversion to 1,5-cz-[Ln(Lig)], Ce^III [3, 5]: 20% | conversion to 1,5-cz-[Ln(Lig)], Dy^III [3, 5]: 93% | conversion to 1,5-cz-[Ln(Lig)], Er^III [3, 5]: 95% | conversion to 1,5-cz-[Ln(Lig)], Eu^III [3, 5]: 79% | conversion to 1,5-cz-[Ln(Lig)], Gd^III [3, 5]: 86% | conversion to 1,5-cz-[Ln(Lig)], Ho^III [3, 5]: 94% | conversion to 1,5-cz-[Ln(Lig)], La^III [3, 5]: 25% | conversion to 1,5-cz-[Ln(Lig)], Lu^III [3, 5]: 96% | conversion to 1,5-cz-[Ln(Lig)], Nd^III [3, 5]: 50% | conversion to 1,5-cz-[Ln(Lig)], Pr^III [3, 5]: 35% | conversion to 1,5-cz-[Ln(Lig)], Sm^III [3, 5]: 73% | conversion to 1,5-cz-[Ln(Lig)], Tb^III [3, 5]: 91% | conversion to 1,5-cz-[Ln(Lig)], Tm^III [3, 5]: 96% | conversion to 1,5-cz-[Ln(Lig)], Yb^III [3, 5]: 96%

CC(C)[Si](C#Cc1cccc(CN2CCN(CC(=O)O)CCN(Cc3cccc(CN=[N+]=[N-])n3)CCN(CC(=O)O)CC2)n1)(C(C)C)C(C)C [TD728]
conversion to 1,5-cz-[M(Lig)], Bi^III ([1]; 1 week at 80° C.): 29% | conversion to 1,5-cz-[M(Lig)], Ir^III ([1]; 1 week at 80° C.): 0% | conversion to 1,5-cz-[M(Lig)], Ru^III ([1]; 1 week at 80° C.): 0% | conversion to 1,5-cz-[M(Lig)], Sc^III ([1]; 1 week at 80° C.): 2% | conversion to 1,5-cz-[M(Lig)], Y^III ([1]; 1 week at 80° C.): 50% | conversion to 1,5-cz-[M(Lig)], Bi^III ([1]; 1 hour at 80° C.): 5% | conversion to 1,5-cz-[M(Lig)], Ir^III ([1]; 1 hour at 80° C.): 0% | conversion to 1,5-cz-[M(Lig)], Ru^III ([1]; 1 hour at 80° C.): 0% | conversion to 1,5-cz-[M(Lig)], Sc^III ([1]; 1 hour at 80° C.): 0% | conversion to 1,5-cz-[M(Lig)], Y^III ([1]; 1 hour at 80° C.): 1% | conversion to 1,5-cz-[M(Lig)], Pt^II ([2]; 1 week at 80° C.): 0% | conversion to 1,5-cz-[M(Lig)], Ca^II ([2]; 1 week at 80° C.): 37% | conversion to 1,5-cz-[M(Lig)], Cd^II ([2]; 1 week at 80° C.): 36% | conversion to 1,5-cz-[M(Lig)], Mn^II ([2]; 1 week at 80° C.): 1% | conversion to 1,5-cz-[M(Lig)], Pb^II ([2]; 1 week at 80° C.): 14% | conversion to 1,5-cz-[M(Lig)], Pd^II ([2]; 1 week at 80° C.): 1% | conversion to 1,5-cz-[M(Lig)], Pt^II ([2]; 1 hour at 80° C.): 0% | conversion to 1,5-cz-[M(Lig)], Ca^II ([2]; 1 hour at 80° C.): 0% | conversion to 1,5-cz-[M(Lig)], Mn^II ([2]; 1 hour at 80° C.): 0% | conversion to 1,5-cz-[M(Lig)], Pb^II ([2]; 1 hour at 80° C.): 0% | conversion to 1,5-cz-[M(Lig)], Pd^II ([2]; 1 hour at 80° C.): 1% | conversion to 1,5-cz-[M(Lig)], Cd^II [2, 4]: 1% | conversion to 1,5-cz-[Ln(Lig)], Ce^III [3, 6]: 5% | conversion to 1,5-cz-[Ln(Lig)], Ce^III [3, 7]: 0% | conversion to 1,5-cz-[Ln(Lig)], Dy^III [3, 6]: 54% | conversion to 1,5-cz-[Ln(Lig)], Dy^III [3, 7]: 1% | conversion to 1,5-cz-[Ln(Lig)], Er^III [3, 6]: 72% | conversion to 1,5-cz-[Ln(Lig)], Er^III [3, 7]: 1% | conversion to 1,5-cz-[Ln(Lig)], Eu^III [3, 6]: 35% | conversion to 1,5-cz-[Ln(Lig)], Eu^III [3, 7]: 0% | conversion to 1,5-cz-[Ln(Lig)], Gd^III [3, 6]: 32% | conversion to 1,5-cz-[Ln(Lig)], Gd^III [3, 7]: 0% | conversion to 1,5-cz-[Ln(Lig)], Ho^III [3, 6]: 60% | conversion to 1,5-cz-[Ln(Lig)], Ho^III [3, 7]: 1% | conversion to 1,5-cz-[Ln(Lig)], La^III [3, 6]: 13% | conversion to 1,5-cz-[Ln(Lig)], La^III [3, 7]: 0% | conversion to 1,5-cz-[Ln(Lig)], Lu^III [3, 6]: 88% | conversion to 1,5-cz-[Ln(Lig)], Lu^III [3, 7]: 2% | conversion to 1,5-cz-[Ln(Lig)], Nd^III [3, 6]: 24% | conversion to 1,5-cz-[Ln(Lig)], Nd^III [3, 7]: 0% | conversion to 1,5-cz-[Ln(Lig)], Pr^III [3, 6]: 23% | conversion to 1,5-cz-[Ln(Lig)], Pr^III [3, 7]: 0% | conversion to 1,5-cz-[Ln(Lig)], Sm^III [3, 6]: 34% | conversion to 1,5-cz-[Ln(Lig)], Sm^III [3, 7]: 0% | conversion to 1,5-cz-[Ln(Lig)], Tb^III [3, 6]: 49% | conversion to 1,5-cz-[Ln(Lig)], Tb^III [3, 7]: 0% | conversion to 1,5-cz-[Ln(Lig)], Tm^III [3, 6]: 84% | conversion to 1,5-cz-[Ln(Lig)], Tm^III [3, 7]: 1% | conversion to 1,5-cz-[Ln(Lig)], Yb^III [3, 6]: 88% | conversion to 1,5-cz-[Ln(Lig)], Yb^III [3, 7]: 2%
